Laboratory results published in US20200261450A1, “6,7-DIHYDROPYRAZOLO[1,5-a]PYRAZIN-4(5H)-ONE COMPOUNDS AND THEIR USE AS NEGATIVE ALLOSTERIC MODULATORS OF MGLUR2 RECEPTORS” (Janssen Pharmaceutica NV, priority 2014, published 2020).
Where two headings read alike, the source gives them in different places.

How the values were obtained:
human mGlu2 receptor = biological target: T1, human mGlu2 receptor (Homo sapiens, UniProt Q14416); experiment: [35S]GTPγS binding assay, mGluR2 negative allosteric modulation; format: biochemical; settings: for Emax: maximal % inhibition relative to the control glutamate response, read-out: GTPγS-hmGluR2 anGT Emax; for IC50: membranes from CHO cells transfected with human mGlu2 receptor, glutamate 60 μM (~EC80), read-out: GTPγS-hmGluR2 anGT pIC50 (converted)
T1 construct: expressed in transfected cells; host or cells: CHO cells (membrane preparation)
Excerpt: Membrane-bound radioactivity was counted in a Topcount.

rats = experiment: Reversal of the effect of the mGluR2 PAM JNJ-42153605-induced inhibition of scopolamine-induced hyperlocomotion; format: in vivo; settings: Rattus norvegicus, criterion total distance >1500 cm, read-out: ED50 SCOP JNJ-42153605
Protocol: 2) Reversal of the Effect of the mGluR2 PAM JNJ-42153605-Induced Inhibition of Scopolamine-Induced Hyperlocomotion
Motor activity was measured in microprocessor-based motor activity arenas (closed gray PVC cylinders with a height of 39 cm and a diameter of 31 cm). Each arena was placed on an infrared LED (8×8 LEDs) lit box (white PVC squared box; 40×40 cm^2; height 12.5 cm. An infrared-sensitive tube camera and a white light source were mounted to the ceiling above the observation chamber to track the animal. The total distance traveled (cm) was recorded and analyzed using the Noldus Ethovision XT Video Tracking System (Version 7.0.418; Noldus, Wageningen, The Netherlands). The intensity of the light within the activity cages (measured in the centre at the level of the floor) ranged between 4 and 8 LUX.
The rats were pretreated with test compound or vehicle at 60 min before the start of the activity recordings and placed into individual cages. The rats were challenged with JNJ-42153605 (3-(cyclopropylmethyl)-7-(4-phenylpiperidin-1-yl)-8-(trifluoromethyl)[1,2,4]triazolo[4,3-a]pyridine; WO2010/130424; Cid et al. J. Med. Chem. 2012, 55, 8770-8789) (20 mg/kg, i.v.) 30 min before the start of the activity recording combined with scopolamine (0.16 mg/kg, i.v.) just before the start of the activity measurements. Immediately after the injection of scopolamine, the rats were placed into the activity monitors and total distance traveled over the first 30 min was measured.
Animals receiving the combination of JNJ-42153605 and scopolamine (n=433) almost always traveled a distance of less than 1500 cm (<1500 cm) (only 2.5% of the control rats traveled a distance of more than 1500 cm (>1500 cm)). On the other hand, animals challenged with scopolamine alone (n=215) always traveled a total distance of more than 1500 cm (>1500 cm) and almost always (in 95.8% of the rats) a distance of more than 4400 cm (>4400 cm). […] For reversal of the inhibitory effect of JNJ-42153605 on the scopolamine-induced hyperlocomotion, the following all-or-none criteria were adopted: (1) reversal: total distance >1500 cm.

Wiga rats = experiment: Induction of mydriasis; format: in vivo; settings: Rattus norvegicus, route PO, pupil diameter >25 units 1 h post-administration
Protocol: The pupil diameter of Wiga rats was measured with a microscopic micrometer (1 unit= 1/24 mm). Criteria for drug-induced effects: pupil diameter >25 units for mydriasis (in controls: 1.9%) 1 h post-administration of the test compound.

Wiga Wistar rats = experiment: Reversal of LY-404039-induced decrease of palpebral opening in apomorphine-challenged rats; format: in vivo; settings: Rattus norvegicus, criterion cumulative palpebral opening score >26, read-out: ED50 APO LY-404039
Protocol: Male Wiga Wistar rats (Crl:WI; Charles River Germany; 220±40 g) were housed under standard laboratory conditions (21±2° C.; 50-65% relative humidity; light-dark cycle set at 12 h; lights on at 6.00 h) and fasted overnight prior to the start of the experiments (tap water remained available ad libitum). During the test period, they were housed in individual cages. Palpebral opening was scored every 5 min over the first hour after injection of apomorphine (1.0 mg/kg, i.v.) in animals either pretreated or not pretreated with LY-404039 (2.5 mg/kg, s.c.) at 1 h prior to the apomorphine injection. The animals were also pretreated with test compound or solvent at a predefined interval before apomorphine challenge. The score system was: (5) exophthalmos, (4) wide open, (3) open for three-quarters, (2) half open, (1) open for one-quarter, (0) closed. The scores for palpebral opening were cumulated over the 60-min observation period.
In animals receiving apomorphine alone the median palpebral opening is 43 whereas in animals receiving apomorphine and LY-404039, the median palpebral opening is 17.

T1 sequence (Q14416 19-872): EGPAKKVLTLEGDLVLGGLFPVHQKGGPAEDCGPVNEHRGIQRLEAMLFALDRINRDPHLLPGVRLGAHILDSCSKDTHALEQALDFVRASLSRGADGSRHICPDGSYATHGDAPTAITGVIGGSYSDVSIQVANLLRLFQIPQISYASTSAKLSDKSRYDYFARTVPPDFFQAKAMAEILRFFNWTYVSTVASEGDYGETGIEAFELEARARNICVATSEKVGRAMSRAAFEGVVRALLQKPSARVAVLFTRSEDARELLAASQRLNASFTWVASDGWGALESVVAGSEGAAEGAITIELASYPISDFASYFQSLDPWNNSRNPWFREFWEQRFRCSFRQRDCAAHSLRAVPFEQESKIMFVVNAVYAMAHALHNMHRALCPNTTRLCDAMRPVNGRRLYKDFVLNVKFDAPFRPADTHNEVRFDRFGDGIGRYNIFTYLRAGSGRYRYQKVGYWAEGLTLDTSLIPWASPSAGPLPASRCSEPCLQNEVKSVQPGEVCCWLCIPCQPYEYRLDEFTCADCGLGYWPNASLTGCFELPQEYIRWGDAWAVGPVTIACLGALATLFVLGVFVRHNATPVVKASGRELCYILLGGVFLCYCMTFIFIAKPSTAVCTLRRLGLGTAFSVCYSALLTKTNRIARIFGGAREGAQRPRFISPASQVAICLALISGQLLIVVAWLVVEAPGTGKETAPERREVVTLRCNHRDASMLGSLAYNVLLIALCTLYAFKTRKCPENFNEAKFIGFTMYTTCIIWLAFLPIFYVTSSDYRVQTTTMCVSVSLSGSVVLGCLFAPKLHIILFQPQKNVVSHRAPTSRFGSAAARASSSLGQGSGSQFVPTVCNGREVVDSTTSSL

Emax (human mGlu2 receptor) [%]	IC50 (human mGlu2 receptor) [nM]	melting point [°C]	Structure (SMILES)	ED50 (rats; route PO) [mg/kg]	ED50 (Wiga rats) [mg/kg]	ED50 (rats; route SC) [mg/kg]	ED50 (Wiga Wistar rats; route PO) [mg/kg]	ED50 (Wiga Wistar rats; route SC) [mg/kg]
105	3.8	168.47	C[C@H]1CN(c2ccc(C(F)(F)F)c(Cl)c2)C(=O)c2c(-c3cc(-c4cnccn4)no3)cnn21 [compound 16]	> 0.63				
107	10.2	171.97	Cc1cc(N2C[C@H](C)n3ncc(-c4cc(-c5ccccn5)no4)c3C2=O)ccc1C(F)(F)F [compound 17]	> 0.63				
105	5.89	181.56	C[C@H]1CN(c2ccc(C(F)(F)F)c(Cl)c2)C(=O)c2c(-c3cc(-c4cncc(F)c4)no3)cnn21 [compound 14]					
107	7.24	159.08	C[C@H]1CN(c2ccc(C(F)(F)F)c(Cl)c2)C(=O)c2c(-c3cc(-c4ccccn4)no3)cnn21 [compound 13]	> 0.63				
103	2.75	126.2	Cc1cc(-c2cnn3c2C(=O)N(c2ccc(C(F)(F)F)c(Cl)c2)C[C@@H]3C)on1 [compound 12]	1.99				
108	2.88	211.19	Cc1ccncc1-c1cc(-c2cnn3c2C(=O)N(c2ccc(C(F)(F)F)cc2)C[C@@H]3C)on1 [compound 10]	> 0.63				
104	12.9	171.64	Cc1cc(N2C[C@H](C)n3ncc(-c4cc(-c5cncc(F)c5)no4)c3C2=O)ccc1C(F)(F)F [compound 19]					
105	20	202.51	C[C@H]1CN(c2ccc(C(F)(F)F)cc2)C(=O)c2c(-c3cc(-c4cnccn4)no3)cnn21 [compound 11]					
110	1.2	149.26	Cc1ccncc1-c1cc(-c2cnn3c2C(=O)N(c2ccc(C(F)(F)F)c(Cl)c2)C[C@@H]3C)on1 [compound 15]	> 0.63				
109	7.08	150.37	Cc1cc(N2C[C@H](C)n3ncc(-c4cc(-c5cnccn5)no4)c3C2=O)ccc1C(F)(F)F [compound 21]	> 0.63				
109	2.14	172.39	Cc1ccncc1-c1cc(-c2cnn3c2C(=O)N(c2ccc(C(F)(F)F)c(C)c2)C[C@@H]3C)on1 [compound 20]	> 0.63				
109	3.24	143.97	Cc1cc(N2C[C@H](C)n3ncc(-c4cc(-c5cccnc5)no4)c3C2=O)ccc1C(F)(F)F [compound 18]	> 0.63				

More lines, now with the values behind:

Structure (SMILES)	Emax (human mGlu2 receptor) [%]	IC50 (human mGlu2 receptor) [nM]	melting point [°C]	ED50 (rats; route PO) [mg/kg]	ED50 (Wiga rats) [mg/kg]	ED50 (rats; route SC) [mg/kg]	ED50 (Wiga Wistar rats; route PO) [mg/kg]	ED50 (Wiga Wistar rats; route SC) [mg/kg]
C[C@H]1CN(c2ccc(C(F)(F)F)c(Cl)c2)C(=O)c2c(-c3cc(-c4cccnc4)no3)cnn21 [Co. No. 4, (7S)-5-[3-Chloro-4-(trifluoromethyl)phenyl]-7-methyl-3-[3-(3-pyridyl)isoxazol-5-yl]-6,7-dihydropyrazolo[1,5-a]pyrazin-4-one]	105	2.34	115.67	0.51				
C[C@H]1CN(c2ccc(C(F)(F)F)cc2)C(=O)c2c(-c3cc(-c4ccccn4)no3)cnn21 [compound 7]	107	11.7	227.97					
C[C@H]1CN(c2ccc(C(F)(F)F)c(Cl)c2)C(=O)c2c(-c3cc(-c4ccc(N)nc4)no3)cnn21 [Co. No. 3, (7S)-3-[3-(6-Amino-3-pyridyl)isoxazol-5-yl]-5-[3-chloro-4-(trifluoromethyl)phenyl]-7-methyl-6,7-dihydropyrazolo[1,5-a]pyrazin-4-one]	105	1.58		0.5				
C[C@H]1CN(c2ccc(C(F)(F)F)cc2)C(=O)c2c(-c3cc(N)no3)cnn21 [Co. No. 1, (7S)-3-(3-Aminoisoxazol-5-yl)-7-methyl-5-[4-(trifluoromethyl)phenyl]-6,7-dihydropyrazolo[1,5-a]pyrazin-4-one]	100	490						
Cc1cc(-c2cnn3c2C(=O)N(c2ccc(C(F)(F)F)cc2)C[C@@H]3C)on1 [compound 5]	102	16.6	161	> 2.5				
C[C@H]1CN(c2ccc(C(F)(F)F)cc2)C(=O)c2c(-c3cc(-c4cccnc4)no3)cnn21 [compound 8]	105	12.9	186.15					
C[C@H]1CN(c2ccc(C(F)(F)F)cc2)C(=O)c2c(-c3cc(-c4ccc(N)nc4)no3)cnn21 [Co. No. 2, (7S)-3-[3-(6-Amino-3-pyridyl)isoxazol-5-yl]-7-methyl-5-[4-(trifluoromethyl)phenyl]-6,7-dihydropyrazolo[1,5-a]pyrazin-4-one]	112	1.95	263.6	0.28	7.94	0.3	0.32	0.2
C[C@H]1CN(c2ccc(C(F)(F)F)cc2)C(=O)c2c(-c3cc(-c4ccccc4)no3)cnn21 [compound 6]	103	12.3	220.55					
C[C@H]1CN(c2ccc(C(F)(F)F)cc2)C(=O)c2c(-c3cc(-c4cncc(F)c4)no3)cnn21 [compound 9]	108	11	180.17					
